Patent publication US20220265762A1, “COMPOSITION, COMPRISING TMEM176B OR AN EXPRESSION OR ACTIVITY REGULATOR THEREOF AS AN ACTIVE INGREDIENT, FOR PREVENTION OR TREATMENT OF DEGENERATIVE BRAIN DISEASE” (AMYLOID SOLUTION INC., priority 2019, published 2022)

Legend:
astrocyte [1] = test: Phagocytic activity of astrocyte with overexpressed TMEM176B on FAM-labeled amyloid-beta oligomer; type: cell-based; conditions: virus-inoculated astrocytes treated with inhibitor at 0, 10, 50 μM; FIG. 3
Experimental: A TMEM176B-infected astrocyte and a normal astrocyte were separately cultured into wells of a 96-well black cell culture plate (by SPL) at a density of 50,000 cells per well, the plate using PriGrow IV medium containing 10% FBS (by GIBCO), penicillin/streptomycin (by Thermo), 10 ng/mL of human EGF (by Abm), and L-glutamine (by Abm). Here, only the astrocytes inoculated with the TMEM176B-adeno-associated virus were treated with the TMEM176B inhibitor at concentrations of 0 μM, 10 μM, and 50 μM, and then stabilized by incubation at 37° C. in a 5% CO2 incubator for 18 to 24 hours. FAM-labeled amyloid-beta (by Anaspec) was dissolved in cold PBS at a concentration of 5 μM, blocked from light, and stored in a refrigerator at 4° C. for 24 hours to prepare an oligomer. […] After 1 minute, trypan blue was removed, and the phagocytized oligomeric amyloid-beta was measured at an excitation wavelength of 485 nm/emission wavelength of 535 nm using a microplate reader capable of measuring fluorescence. […] After the incubation was completed, a washing process was performed thereon once with PBS, and the stained nuclei were measured at an excitation wavelength of 360 nm/emission wavelength of 465 nm using a microplate reader capable of measuring fluorescence.

astrocyte [2] = test: Phagocytic activity of astrocyte on FAM-labeled amyloid-beta oligomer after TMEM176B inhibitor treatment; type: cell-based; conditions: inhibitor at 0, 3.703, 11.11, 33.33, 100 μM, FIG. 1
Experimental: In detail, BAYK8644 (by Merck) was used as a TMEM176B inhibitor, a method of confirming phagocytic activity of an astrocyte (by Abm) after treatment with the inhibitor was performed as follows. The astrocyte was cultured in a 96-well black cell culture plate (by SPL) using a PriGrow IV medium containing 10% FBS (by GIBCO), penicillin/streptomycin (by Thermo), human EGF 10 ng/mL (by Abm), and L-glutamine (by Abm), and incubation thereof was started at a density of 50,000 cells per well. Here, the TMEM176B inhibitor was treated at concentrations of 0 μM, 3.703 μM, 11.11 μM, 33.33 μM, and 100 μM, and the then the cells were stabilized by incubation at 37° C. in a 5% CO2 incubator for 18 to 24 hours. Fluorescent FAM-labeled amyloid-beta was dissolved in cold PBS (by Anaspec) at a concentration of 5 μM, blocked from light, and stored in a refrigerator at 4° C. for 24 hours to prepare amyloid-beta in oligomers. […] After 1 minute, trypan blue was removed by suction, and the phagocytized oligomeric amyloid-beta was measured at an excitation wavelength of 485 nm/emission wavelength of 535 nm using a microplate reader capable of measuring fluorescence. […] After the incubation was completed, a washing process was performed thereon once with PBS, and the stained nuclei were measured at an excitation wavelength of 360 nm/emission wavelength of 465 nm.

## COC(=O)C1=C(C)NC(C)=C([N+](=O)[O-])C1c1ccccc1C(F)(F)F (centres unmarked) [TMEM176B inhibitor, BAYK8644]
Astrocyte [1]
  phagocytosis of oligomeric amyloid-beta: decreased in a concentration-dependent manner
Astrocyte [2]
  phagocytosis function on the amyloid-beta oligomer: decreased the phagocytosis function
